Our source for the IC50 values is patent US20240417405A1, “Substituted Spiro Derivatives” (Janssen Pharmaceutica NV, priority 2021, published 2024).

Where two headings read alike, the source gives them in different places. A value given as a limit tells only on which side of the number the result lay.

For assay [1], the target named is T1, menin/MLL (terbium chelate-labeled menin, FITC-MBM1 peptide) (Homo sapiens, UniProt O00255, T541A).
T1 construct: Menin (a.a 1-610-6xhis tag)
T1 sequence (O00255 with tags, fused parts or gaps T541A): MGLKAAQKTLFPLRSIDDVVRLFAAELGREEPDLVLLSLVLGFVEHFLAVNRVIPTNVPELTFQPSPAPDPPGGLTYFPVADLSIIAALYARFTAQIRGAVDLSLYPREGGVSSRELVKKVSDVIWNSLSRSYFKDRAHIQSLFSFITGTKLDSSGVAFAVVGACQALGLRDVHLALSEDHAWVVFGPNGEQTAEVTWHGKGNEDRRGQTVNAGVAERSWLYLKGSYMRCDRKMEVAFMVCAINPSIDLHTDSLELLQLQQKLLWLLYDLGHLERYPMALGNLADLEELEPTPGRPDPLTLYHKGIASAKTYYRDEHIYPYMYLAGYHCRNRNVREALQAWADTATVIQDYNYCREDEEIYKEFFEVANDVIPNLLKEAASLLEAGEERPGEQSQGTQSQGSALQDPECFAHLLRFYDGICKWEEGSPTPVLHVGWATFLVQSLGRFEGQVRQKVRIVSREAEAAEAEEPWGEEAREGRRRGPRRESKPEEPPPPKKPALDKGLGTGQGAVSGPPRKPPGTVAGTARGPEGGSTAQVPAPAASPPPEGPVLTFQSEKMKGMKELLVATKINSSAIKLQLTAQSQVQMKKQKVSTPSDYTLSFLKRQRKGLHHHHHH
The assay can be described thus: Menin/MLL homogenous time-resolved fluorescence (HTRF) assay. Format: binding. Particulars: 30 min incubation. The essentials:
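Compounds were preincubated 30 min at ambient temperature with 200 pM terbium-labeled menin (aa 1-610, His-tagged) in Tris pH 7.5 buffer with DTT and Pluronic, then 75 nM FITC-MBM1 peptide added for 15 min. HTRF ratio 520/490 nm gave % inhibition; IC50 from four-parameter fit, floor 0.1 nM.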

The subject of assay [2] is MOLM14 cells. The assay can be described thus: Proliferation assay, spheroid-like growth, MOLM14 (MLL-AF9 rearranged). The conditions noted are these: 8 days, confluence as measure of spheroid size, read-out: spheroid assay_OneTime MOLM14 IC50. The format is cell-based, human. The essentials:
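IC50 derived from a variable-slope dose-response fit of percent confluence change, with DMSO-treated cells as high control and high-dose reference compound as low control. Spheroid-like growth of MOLM14 (200 cells/well) or KO-52 (300 cells/well) in ultra-low attachment plates, 8 days, 37° C, 5% CO2, DMSO normalised to 0.3%, imaged at day 8.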

As for `CC(C)C([C@H]1C[C@@H](Nc2cccc(CN3CCOCC3)n2)C1)N1CC2(CCN(c3ncnnc3Oc3ccc(F)cc3-c3cncnc3C3CC3)C2)C1` (single isomer, unassigned) [Compound 428], the concentration for half-maximal inhibition (IC50) in assay [1] is 0.09 nM; in assay [2] (Homo sapiens, MOLM-14, 192 h), 16 nM.
Regarding `CC(=O)N1CCCN([C@H]2C[C@@H]([C@@H](C(C)C)N3CC4(CCN(c5ncnnc5Oc5ccc(F)cc5-c5cncnc5C5CC5)C4)C3)C2)CC1` (single isomer, unassigned) [Compound 61], the IC50 in assay [1] was found to be 0.2 nM; in assay [2] (Homo sapiens, MOLM-14, 192 h), 23 nM.
On to `CC(C)[C@H]([C@H]1C[C@@H](Nc2ccc3[nH]c(=O)[nH]c3c2)C1)N1CC2(CCN(c3ncnnc3Oc3ccc(F)cc3-c3cncnc3C3CC3)C2)C1` (single isomer, unassigned) [Compound 462], for which the IC50 in assay [1] turned out to be 0.27 nM; in assay [2] (Homo sapiens, MOLM-14, 192 h) it was 89 nM.
Take `Cc1nnc(C2CC2)n1-c1cc(F)ccc1Oc1nncnc1N1CCC2(C1)CN([C@H](C(C)C)C1CC(N(C)C)C1)C2` (mixture of isomers) [Compound 502, N,N-dimethyl-3-[(1R)-1-[7-[6-[2-(3-cyclopropyl-5-methyl-1,2,4-triazol-4-yl)-4-fluoro-phenoxy]-1,2,4-triazin-5-yl]-2,7-diazaspiro[3.4]octan-2-yl]-2-methyl-propyl]cyclobutanamine]: the half-maximal inhibitory concentration (IC50) in assay [1] stood at 0.12 nM; in assay [2] (Homo sapiens, MOLM-14, 192 h) it was 32 nM.
With `CC(C)[C@H]([C@H]1C[C@@H](Nc2ncnc3[nH]ncc23)C1)N1CC2(CCN(c3ncnnc3Oc3ccc(F)cc3-c3cncnc3C3CC3)C2)C1` (single isomer, unassigned) [Compound 422], the IC50 was about 0.27 nM in assay [1] and 88 nM in assay [2] (Homo sapiens, MOLM-14, 192 h).
With `CC(C)[C@@H]([C@H]1C[C@@H](NC(=O)C2CC2)C1)N1CC2(CCN(c3ncnnc3Oc3ccc(F)cc3-c3n[nH]c(=O)cc3C3CC3)C2)C1` (single isomer, unassigned) [Compound 310], the concentration for half-maximal inhibition (IC50) is 24.2 nM in assay [1] and over 940 nM in assay [2] (Homo sapiens, MOLM-14, 192 h).
Take `CC(C)[C@H]([C@H]1C[C@@H](N2CCC3(CNC(=O)O3)C2)C1)N1CC2(CCN(c3ncnnc3Oc3ccc(F)cc3-c3nnccc3C3CC3)C2)C1` (single isomer, unassigned) [Compound 328]: the half-maximal inhibitory concentration (IC50) in assay [1] came to 0.1 nM; in assay [2] (Homo sapiens, MOLM-14, 192 h), 33 nM.
Consider `CCOC(=O)c1coc(N[C@H]2C[C@@H]([C@@H](C(C)C)N3CC4(CCN(c5ncnnc5Oc5ccc(F)cc5-c5cncnc5C5CC5)C4)C3)C2)n1` (single isomer, unassigned) [Compound 480], for which the concentration for half-maximal inhibition (IC50) in assay [1] is 0.15 nM; in assay [2] (Homo sapiens, MOLM-14, 192 h), 6 nM.
As for `CO[C@H]1CCN([C@H]2C[C@@H]([C@H](C(C)C)N3CC4(CCN(c5ncnnc5Oc5ccc(F)cc5-c5nnc(C)cc5C5CC5)C4)C3)C2)C1` [Compound 398], the half-inhibitory concentration (IC50) in assay [1] is 0.144 nM; in assay [2] (Homo sapiens, MOLM-14, 192 h), 6.4 nM.
The corresponding values for `CC(=O)Nc1cc(NC2CC(C(C(C)C)N3CC4(CCN(c5ncnnc5Oc5ccc(F)cc5-c5cncnc5C5CC5)C4)C3)C2)ccn1` (centres unmarked) [Compound 407] are 0.11 nM and under 1.8 nM.
As for `Cc1ncc(-c2cc(F)ccc2Oc2nncnc2N2CCC3(C2)CN([C@@H](C(C)C)[C@H]2C[C@@H](N4CC5COCC5C4)C2)C3)c(C2CC2)n1` (mixture of isomers) [Compound 379], the concentration for half-maximal inhibition (IC50) came out at 0.11 nM in assay [1] and 1.9 nM in assay [2] (Homo sapiens, MOLM-14, 192 h).
Regarding `Cc1cc(-c2cnnc(N[C@H]3C[C@@H]([C@@H](C(C)C)N4CC5(CCN(c6ncnnc6Oc6ccc(F)cc6-c6cncnc6C6CC6)C5)C4)C3)c2)[nH]n1` (single isomer, unassigned) [Compound 423], the IC50 is 0.18 nM in assay [1] and 9 nM in assay [2] (Homo sapiens, MOLM-14, 192 h).
As to `CC(C)[C@H]([C@H]1C[C@@H](N2CCC3(CCO3)CC2)C1)N1CC2(CCN(c3ncnnc3Oc3ccc(F)cc3-c3cnncc3C3CC3)C2)C1` (single isomer, unassigned) [Compound 280a], the concentration for half-maximal inhibition (IC50) was 5 nM in assay [1] and over 940 nM in assay [2] (Homo sapiens, MOLM-14, 192 h).
For the molecule `CC(=O)N1CC2CN([C@H]3C[C@@H]([C@H](C(C)C)N4CC5(CCN(c6ncnnc6Oc6ccc(F)cc6-c6cnc(C)nc6C6CC6)C5)C4)C3)CC2C1` (some centres unmarked) [Compound 378], the IC50 stood at 0.106 nM in assay [1] and 1.6 nM in assay [2].
For the molecule `Cc1cn2ccc(N[C@H]3C[C@@H](C(C(C)C)N4CC5(CCN(c6ncnnc6Oc6ccc(F)cc6-c6cncnc6C6CC6)C5)C4)C3)cc2n1` (single isomer, unassigned) [Compound 426], the IC50 was 0.09 nM in assay [1] and under 1.8 nM in assay [2] (Homo sapiens, MOLM-14, 192 h).
On to `CC(=O)N1CC2CN([C@H]3C[C@H]([C@H](C(C)C)N4CC5(CCN(c6ncnnc6Oc6ccc(F)cc6-c6cnc(C)nc6C6CC6)C5)C4)C3)CC2C1` (some centres unmarked) [Compound 376], for which the IC50 turned out to be 0.62 nM in assay [1] and 100 nM in assay [2] (Homo sapiens, MOLM-14, 192 h).
For `CC(C)[C@H]([C@H]1C[C@@H](N2CC3(CCCCO3)C2)C1)N1CC2(CCN(c3ncnnc3Oc3ccc(F)cc3-c3nnccc3C3CC3)C2)C1` (single isomer, unassigned) [Compound 267], the IC50 in assay [1] turned out to be 1.3 nM; in assay [2] (Homo sapiens, MOLM-14, 192 h) it was 180 nM.
For the molecule `Cc1ncc(-c2cc(F)ccc2Oc2nncnc2N2CCC3(C2)CN([C@@H](C(C)C)[C@H]2C[C@@H](N4CC[C@H](C(=O)N(C)C)C4)C2)C3)c(C2CC2)n1` [Compound 383], the concentration for half-maximal inhibition (IC50) in assay [1] was found to be 0.04 nM; in assay [2] (Homo sapiens, MOLM-14, 192 h), 2.3 nM.
For the molecule `CNC(=O)c1ncc(N[C@H]2C[C@@H]([C@@H](C(C)C)N3CC4(CCN(c5ncnnc5Oc5ccc(F)cc5-c5cncnc5C5CC5)C4)C3)C2)s1` (single isomer, unassigned) [Compound 449], the half-maximal inhibitory concentration (IC50) in assay [1] was determined as 0.09 nM; in assay [2] (Homo sapiens, MOLM-14, 192 h), 8.4 nM.
For the molecule `CC(C)[C@H]([C@H]1C[C@@H](Nc2cc3nccn3cn2)C1)N1CC2(CCN(c3ncnnc3Oc3ccc(F)cc3-c3cncnc3C3CC3)C2)C1` (single isomer, unassigned) [Compound 433], the IC50 was found to be 0.15 nM in assay [1] and 2 nM in assay [2] (Homo sapiens, MOLM-14, 192 h).
For the molecule `CO[C@H]1CCN(C2CC(C(C(C)C)N3CC4(CCN(c5ncnnc5Oc5ccc(F)cc5-c5nnc(C)cc5C5CC5)C4)C3)C2)C1` (single isomer, unassigned) [Compound 399], the half-maximal inhibitory concentration (IC50) came out at 0.92 nM in assay [1] and 200 nM in assay [2] (Homo sapiens, MOLM-14, 192 h).
Turning to `CC(C)C([C@H]1C[C@@H](Nc2nnc(N)s2)C1)N1CC2(CCN(c3ncnnc3Oc3ccc(F)cc3-c3cncnc3C3CC3)C2)C1` (single isomer, unassigned) [Compound 488], the IC50 was found to be 0.15 nM in assay [1] and 4 nM in assay [2] (Homo sapiens, MOLM-14, 192 h).
In the case of `CC(C)C([C@H]1C[C@@H](N2CC3(COC3)C2)C1)N1CC2(CCN(c3ncnnc3Oc3ccc(F)cc3-c3ncc(C#N)cc3C3CC3)C2)C1` (some centres unmarked) [Compound 140], the IC50 came out at 0.5 nM in assay [1] and 42 nM in assay [2] (Homo sapiens, MOLM-14, 192 h).
With `CC(=O)Nc1cc(N[C@H]2C[C@@H]([C@@H](C(C)C)N3CC4(CCN(c5ncnnc5Oc5ccc(F)cc5-c5cncnc5C5CC5)C4)C3)C2)ncn1` (single isomer, unassigned) [Compound 418], the half-maximal inhibitory concentration (IC50) in assay [1] was 0.07 nM; in assay [2] (Homo sapiens, MOLM-14, 192 h), 9 nM.
As to `CNC(=O)Nc1cc(N[C@H]2C[C@@H](C(C(C)C)N3CC4(CCN(c5ncnnc5Oc5ccc(F)cc5-c5cncnc5C5CC5)C4)C3)C2)ccn1` (single isomer, unassigned) [Compound 421], the half-inhibitory concentration (IC50) in assay [1] is 0.13 nM; in assay [2] (Homo sapiens, MOLM-14, 192 h) it was under 1.8 nM.
